COc1c(O)cc2c(c1O)[C@@H]1O[C@H](CO)[C@@H](O)[C@H](O)[C@H]1OC2=O
solubility (mole fraction)
Conditions	in DMSO	in ethanol	in ethyl acetate	in ethylene glycol	in isopropanol	in n-butanol	in propylene glycol	in sec-butanol	in transcutol	in water
298.15 K	0.0171	0.00469	0.000228	0.00774	0.00129	0.000379	0.00777	0.000384	0.0145	7.57e-05
303.15 K	0.0184	0.00537	0.000311	0.00859	0.00139	0.000404	0.00873	0.00041	0.0166	9.93e-05
308.15 K	0.02	0.00612	0.000405	0.00944	0.00149	0.000431	0.00966	0.00044	0.0186	0.000125
313.15 K	0.0214	0.00687	0.000526	0.0105	0.00159	0.000458	0.0108	0.000473	0.0207	0.000155
318.15 K	0.023	0.00777	0.000671	0.0117	0.00169	0.000492	0.0119	0.000514	0.0228	0.000187

Conditions	solubility (mole fraction)
in PEG-400, 298.15 K	0.0236
in PEG-400, 303.15 K	0.0277
in PEG-400, 308.15 K	0.032
in PEG-400, 313.15 K	0.0367
in PEG-400, 318.15 K	0.0415

Reference: BigSolDB 2.1
